# Values joined by “and” are separate entries in the source; they are usually repeats but may differ in a detail not shown here. Identical values can stand only once.
# How the values were obtained:
# IRP2 = IRP2 expression in treated cells; format: cell-based, human
# Source text: (§1) However, IRP2 contributes very little—if at all—to the total IRP bound to the HIF2a IRE (Zimmer et al., 2008).
# [1] = tested on: 7SV (SV40-luciferase) cells; assay: SV40-luciferase control reporter assay in 786-O derived 7SV cells; format: cell-based, human; details: 48 hours
# Description: (§2) The screen for small molecule inhibitors was performed in the Institute for Chemical and Cellular biology, Harvard Medical School. 7SV or 7H4 cells were plated onto 384-well plates. The next day compounds were added robotically to the medium, to a final concentration of approximately 10 μM. 24 hours later, media was aspirated and Passive Lysis Buffer (Promega) and Luciferase Assay Reagent II (Promega) were added. Luciferase activity was measured with an Analyst plate reader (LJL Biosystems). All experiments were performed in duplicate and the identity of lead compounds was confirmed by mass spectroscopy
# (§3) Luciferase assays were performed using the Promega's Dual-luciferase Assay Reporter System (Promega, E1910) according to the manufacturer's instructions. Counts obtained from transient transfections were normalized for co-transfected Renilla luciferase. Stable clones were normalized to medium only treated wells.
# Functionally validated HRE and control SV40 luciferase reporter constructs were stably introduced into VHL-deficient 786-O cells to generate 7H4 and 7SV lines, respectively (see FIG. 8A). […]
# To validate the connectivity map-derived prediction that PGJ2 is involved in HIF signaling, the inventors treated HRE-luciferase expressing 786-O cells (7H4) and SV40-luciferase expressing control cells (7SV) with increasing doses of PGJ2. […] Luciferase activity was measured at 48 hours.
# Fli1-GFP fish embryo = assay: Inhibition of vascularization in fish embryo; details: 3microM; treated at 20 hpf, imaged 48-50 hpf
# IRP1 = IRP1 expression in treated cells; format: cell-based, human
# Source text: The inventors next tested the effect of hypoxia on the binding of IRP1 to the HIF-2a wild-type IRE. […] This is due to decreased mRNA binding, as western blots confirm that neither compound application nor hypoxia affects IRP1 protein expression. The involvement of IRP1 was further confirmed with super-shifting experiments with IRP1 antibody (FIG. 7C). No supershifted bands were observed using IRP2 antibody.
# as §1
# [2] = tested on: HIF-2a (HRE-luciferase, 7H4 cells); assay: HRE-luciferase reporter assay in 786-O derived 7H4 cells; format: cell-based, human
# Description: as §2, §3
# Functionally validated HRE and control SV40 luciferase reporter constructs were stably introduced into VHL-deficient 786-O cells to generate 7H4 and 7SV lines, respectively (see FIG. 8A). These lines were used to screen five commercial small molecule libraries (NCI Diversity Set, Chembridge, Maybridge, CEREP and Peakdale) and the ICCB Diversity-Oriented Synthesis (DOS) Diversity Set 2 (DDS2) and serine-derived peptidomimetic (SDP1) collections, totaling 58,000 compounds.
# 786-O cells were untreated (M, for medium only), mock-treated (D, for DMSO) or treated with compounds for two days before assaying for normalized luciferase activity. The resulting dose response curves are shown along with the compound structures in FIGS. 1A-1H).
# To validate the connectivity map-derived prediction that PGJ2 is involved in HIF signaling, the inventors treated HRE-luciferase expressing 786-O cells (7H4) and SV40-luciferase expressing control cells (7SV) with increasing doses of PGJ2.
# HIF-2a target genes = assay: HIF-2a target gene expression (Glut-1 Western blot, VEGF and IGFBP3 ELISA, EGLN3 qRT-PCR); format: cell-based, human; details: treated 786-O cells
# Description: ID NO: 1) and [NT] […] ID NO: 3) and [NT] ID NO: 4) for […] ID NO: 5) and [NT] ID NO: 6) for Transferrin Receptor 1 ([…] ID NO: 7) and [NT] ID NO: 8) for […] ID NO: 9) and [NT] ID NO: 10) for […] ID NO. 11) and [NT] ID NO: 12) for EGLN3. […] ID NO: 13) and [NT] ID NO: 14). […] VEGF or IGFBP3 ELISA was performed on the conditioned supernatant using Quantikine immunoassay kits (R&D Systems, DVE00 for VEGF, DGB300 for IGFBP3). […] Hypoxia stabilized HIF-2a in VHL-reconstituted WT8 cells, but treatment with compounds diminished hypoxia-induced HIF-2a expression (FIG. 3C).
# HIF-2a = assay: Western blot for HIF-2a protein expression; format: cell-based, human; details: A498 and UMRC2 cells
# [3] = biological target: T1, IRP2 binding to Ferritin-L IRE (Homo sapiens, UniProt P48200); assay: Electrophoretic mobility shift assay, Ferritin L IRE probe; details: 786-O lysates, EMSA
# T1 construct: when expressed in endogenous levels; endogenous in cells; host or cells: 786-O
# Description: EMSAs were performed as described previously (Fillebeen et al., 2003). Briefly, 50 μg lysate from 786-O cells treated with medium only, DMSO, or compounds were incubated with 25,000 cpm wild-type or mutant radiolabeled HIF-2a IRE probe for 20 minutes at room temperature before loading onto non-denaturing acrylamide gels. Supershifts were performed identically, save that 0.2 μg control, IRP1 or IRP2 antibodies were also added. Total protein content was estimated by Bradford Assay (BioRad, 500-0006), and even loading for all experiments was confirmed by Western blot for B-Actin.
# Inventors discovered that compound 76 increased the residual amount of IRP1 bound to the HIF-2a IRE in hypoxia, although not to the same extent as that observed in normoxic cells. […] Lastly, to further investigate the involvement of IRP2 in HIF-2a IRE, the inventors compared side by side IRP2 binding to HIF-2a and Ferritin-L IRE in 786-O cells, in conditions of normoxia or hypoxia and after treatment with compound 76 or DFO (FIG. 7E). While IRP2 binding was clearly detected on Ferritin IRE, the inventors were not able to detect measurable IRP2 binding on HIF-2a IRE.
# T1 sequence (P48200 whole entry): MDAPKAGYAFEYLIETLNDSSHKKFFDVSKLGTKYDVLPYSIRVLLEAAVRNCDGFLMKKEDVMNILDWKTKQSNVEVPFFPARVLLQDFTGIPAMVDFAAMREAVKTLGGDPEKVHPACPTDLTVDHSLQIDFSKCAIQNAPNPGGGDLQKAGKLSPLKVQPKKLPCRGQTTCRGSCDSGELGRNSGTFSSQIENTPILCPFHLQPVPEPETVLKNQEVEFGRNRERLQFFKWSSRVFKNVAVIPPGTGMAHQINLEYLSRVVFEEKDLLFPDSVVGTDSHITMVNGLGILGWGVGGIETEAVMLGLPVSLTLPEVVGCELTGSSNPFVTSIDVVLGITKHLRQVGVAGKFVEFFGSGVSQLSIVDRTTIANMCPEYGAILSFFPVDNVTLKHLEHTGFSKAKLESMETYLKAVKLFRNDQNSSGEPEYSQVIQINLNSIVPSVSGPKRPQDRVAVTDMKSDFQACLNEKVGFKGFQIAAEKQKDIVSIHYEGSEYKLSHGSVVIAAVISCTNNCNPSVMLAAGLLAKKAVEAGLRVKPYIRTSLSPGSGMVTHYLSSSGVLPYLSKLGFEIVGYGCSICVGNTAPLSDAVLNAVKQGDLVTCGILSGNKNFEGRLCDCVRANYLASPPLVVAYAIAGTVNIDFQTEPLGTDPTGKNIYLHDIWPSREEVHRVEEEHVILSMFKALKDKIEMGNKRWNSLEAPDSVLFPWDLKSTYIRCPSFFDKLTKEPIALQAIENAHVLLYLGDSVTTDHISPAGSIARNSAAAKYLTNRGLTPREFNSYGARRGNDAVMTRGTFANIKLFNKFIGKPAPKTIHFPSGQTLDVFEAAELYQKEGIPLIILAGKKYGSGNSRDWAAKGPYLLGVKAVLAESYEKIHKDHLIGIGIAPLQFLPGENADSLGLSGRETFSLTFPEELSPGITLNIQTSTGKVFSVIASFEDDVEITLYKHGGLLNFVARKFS
Structure (SMILES),IRP2 expression (IRP2),SV40-driven luciferase activity [1],Totals: Completed (Fli1-GFP fish embryo),Totals: stalled (Fli1-GFP fish embryo),"completed of total, per animal (Fli1-GFP fish embryo)",IRP1 expression (IRP1),"IC50 ([2]; 7H4 cells, luciferase measured at 48 hours, read-out: IC50app, HRE-driven luciferase activity)","HIF2a activity at various ambient oxygen concentrations ([2]; HRE-luciferase 786-O cells, 48 hours)","expression of HIF-2a target genes (Glut-1, VEGF, IGFBP3, EGLN3) (HIF-2a target genes)",HIF2a protein expression in other VHL-deficient renal cell carcinoma lines (HIF-2a),binding of IRP2 to Ferritin-L IRE [3]
"CCCCC/C=C/C=C1/C(=O)C=C[C@@H]1C/C=C\CCCC(=O)O [PGJ2, 15-deoxy-Δ^12,14-prostaglandin J2]",minimally increased,not affected,47,39,6 of 17 (2×) and 17 of 18 and 9 of 17 (2×),not affected,5 µM,has the ability to repress HIF2a activity at a wide range of oxygen concentrations,decrease,decreased HIF2a protein expression,–
"COC(=O)c1sccc1N/N=C(/C#N)S(C)(=O)=O [Compound 76, methyl 3-{2-[cyano(methylsulfonyl)methylene] hydrazino}thiophene-2-carboxylate]",–,–,–,–,–,–,–,–,–,–,slightly enhanced

# From US10881656B2, “HIF inhibitors and use thereof” (The General Hospital Corporation, priority 2008, dated 2021)
